Assay results as given in US8242203B2, “Covalently attached nile blue derivatives for optical sensors” (priority 2005, dated 2012).
Where two headings read alike, the source gives them in different places.

How the values were obtained:
[1] = comparison value, cited from earlier work
[2] = Leaching of chromoionophore from ISE membrane during conditioning and measurement; assay type: physicochemical; settings: conditioning in contact with buffer and measurements
Procedure: ISE Membrane Preparation and Measurements. ISE membranes were prepared by dissolving chromoionophore (10 mmol/kg), NaTFPB (2 mmol/kg), PVC and plasticizer (DOS or NPOE) to give a total cocktail mass of 140 mg in 1.5 mL of THF. The cocktail of the membrane with grafted chromoionophore contained 2 mmol/kg NaTFPB, 10 wt % MMA-DMA polymer with grafted indicators, PVC and plasticizer (DOS or NPOE). Cocktails were poured into glass rings (2.2 cm i.d.) affixed onto glass microscope slides.
The solvent was evaporated overnight to give a transparent membrane. The parent membranes were then conditioned for at least 12 hours in pH buffered solutions. For pH titrations, buffer solutions are 10 mM citric acid and 10 mM boric acid with the indicated concentrations of NaCl (either 10 mM or 0.1 mM) adjusted to pH 1.5 by 1 M standard HCl, or 10 mM phosphate buffer solution with NaCl as background. The solution was titrated with a 0.1 M standard NaOH solution and a pH electrode was used to monitor the sample pH. All experimental results given are the average of at least three electrodes, with calculated standard deviations.
The first polymerizable chromoionophore NB1 is a derivative of the highly basic oxazine-dye molecule Nile Blue attached to a acryloyloxybenzoyl group. The pH responses of NB1 based ion selective electrode (“ISE”) membranes were investigated first. […]

SMILES	pKa ([1]; PVC-DOS)	pKa ([1]; PVC-NPOE)	leaching of the dye from the ISE membrane [2]
CCCCCCCCCCCCCCCCCC(=O)N=c1cc2oc3cc(N(CC)CC)ccc3nc-2c2ccccc12 [ETH 5294, 9-(diethylamino)-5-octadecanoylimino-5H-benzo[a]phenoxazine]	11.4	14.8	–
C=CC(=O)Oc1ccc(C(=O)/N=c2/cc3oc4cc(N(CC)CC)ccc4nc-3c3ccccc23)cc1 [NB1]	–	–	found to leach from the membrane
